How the values were obtained:
[1] = In vitro aerosol performance of TPIP from HR RS01 DPI by Next Generation Impactor with breath simulator; type: physicochemical; settings: 30 LPM; for FPD (<5 μm), TP: 16 mg capsule
Experimental: All the experiments in the following examples of present disclosure were performed with the RS01 Model 7 Plastiape (Plastiape S.p.A., Osnago, Italy) high resistance (HR) (code 239700002AA) DPI device for evaluation. The following examples relate to in vitro aerosol performance of the capsules containing 16 and 32 mg TPIP utilizing the HR RS01 Plastiape device in response to more clinically relevant inhalation profiles deviating from the rectangular wave profile. The aerosol performance were evaluated at different inhalation volumes of 4 L, 2 L or 1 L and at a different peak inspiratory flow rate of 60 LPM corresponding to a pressure drop of 4 kPa or 30 LPM corresponding to a pressure drop of 0.89 kPa across the device to reflect a diverse set of user scenarios.
An RS01 Model 7 Plastiape (Plastiape S.p.A., Osnago, Italy) high resistance (HR) (code 239700002AA) DPI device was used for evaluation. The pressure drop across the HR device containing an empty capsule was measured as a function of flow rate between 30 to 100 L/min (LPM).
To evaluate the differences in aerosol performance in response to different breathing profiles, TPIP aerosol emitted from the HR Plastiape device was delivered to the NGI (MSP Corp., Shoreview, MN) at ambient temperatures and low humidity (<45% RH) under various scenarios generated by the breathing simulator (BRS 3100, Copley), as presented in FIG. 1. A mixing inlet (Copley) was attached in between the pre-separator and the induction port to allow a constant flow rate of 30 or 60 LPM to be achieved through the NGI, while varying the change in inhalation profiles from the HR Plastiape device via BRS system. The outlet port of the NGI was connected to a vacuum pump drawing 30 or 60 LPM airflow (X) via a critical flow controller (TPK 2100, Copley), and an airflow of 30 or 60 LPM (Y) was drawn into the mixing inlet to ensure that initially no airflow (X-Y=0) was drawn through the inhaler. Aerosolization of the powder into the NGI was triggered by the BRS system via a diversion valve that redirects the airflow (Y) into the BRS system. For example, if 30 LPM airflow of Y is redirected to the BRS system, this would cause 30 LPM airflow to be drawn through the inhaler and into the mixing inlet. Therefore, the simulated inhalation profile generated by the BRS system is identical to the inhalation profile through the inhaler.
The BRS software was manually programmed through a Word Pad script to simulate inhalation acceleration rates of 20, 5.88, 2, 1, and 0.5 L/sec^2 corresponding to 50, 170, 500, 1000, and 2000 millisecond (ms) ramp times for a total inhaled volume of 4 L, and for 2 and 1 L inhalation volumes at both extreme acceleration rates to achieve the 60 LPM flow rate. Additionally, the breathing profile scripts for the 1, 2, and 4 L inhalation volumes at 20 and 0.5 L/s^2 (corresponding to 50 and 2000 ms ramp times) to reach the 30 LPM flow rate are included. A trapezoidal waveform was used to maintain the 4 L total inhalation volume as well as to keep the maximum inhalation flow rate at 60 LPM corresponding to the 4 kPa pressure drop across the device (FIG. 2A). Additionally, the breathing profiles with reduced inhalation volumes of 1 and 2 L were evaluated at the two extreme acceleration rates of 20 and 0.5 L/s^2 (corresponding to 50 and 2000 ms ramp times) for the 60 LPM inspiratory flow rate (FIG. 2B), and 25 and 1000 ms ramp times for the 30 LPM inspiratory flow rate (FIG. 2C).
The aerosol performance of each inhalation profile was characterized for TP with respect to its emitted dose (ED), mass median aerodynamic diameter (MMAD), geometric standard deviation (GSD), fine particle fraction<5 μm (FPF) and fine particle dose<5 μm (FPD) as described below. The total recovery of TP was also measured to provide assurance that each experiment was conducted acceptably. […]

[2] = Aerosol performance of TPIP by NGI with four RS01 devices of different resistance; type: physicochemical
Experimental: FIGS. 8A-8C are graphs showing TP Fine Particle Fraction (FPF) (FIG. 8A); Fine Particle Dose (FPD) as a Function of Device Resistance for the 8 mg (blue), 16 mg (orange), and 32 mg (gray) Capsule Dose (FIG. 8B); and TP FPD as a Function of Capsule Dose for Each Device (FIG. 8C). Trend lines are only shown for the UHR and HR DPIs in FIG. 8C. The ultra-high resistance (UHR), the high resistance (HR), the medium resistance (MR) and the low resistance (LR) devices were tested at 40, 60, 85 and 100 LPM, respectively.
The aerosolized composition is administered to a patient in need of treatment of PH, e.g., PAH or PH associated with interstitial lung disease (PH-ILD). In one embodiment, the aerosolized composition is administered to a patient in need of treatment of pulmonary fibrosis (e.g., PH-ILD where the ILD is pulmonary fibrosis). The aerosolized composition can be characterized by certain parameters known to those of skill in the art, such as fine particle fraction (FPF), fine particle dose (FPD), emitted dose (ED), mass median aerodynamic diameter (MMAD) and/or particle size and distribution. In embodiments, these parameters are measured by NGI. In embodiments, the NGI uses a flow rate corresponding to a 3 kPa to 4.5 kPa air pressure drop relative the resistance of the DPI. In embodiments, the pressure drop is 4 kPa. For example, the performance of an ultra high resistance (UHR), high resistance (HR) and medium resistance (MR) devices may be evaluated by drawing 4 L of air through the DPI at a flow rate of 40, 60 and 85 LPM, respectively, corresponding to the 4 kPa air pressure drop. Aerosol characterization data for the above-noted parameters can be compared across different DPI devices (with different resistances). In embodiments, the mean inhaler resistance of a high resistance DPI used to achieve the parameters described herein ranges from 0.025 to 0.040 kPA^1/2 (L/min^−1)^−1. In embodiments, the mean inhaler resistance of a high resistance DPI used to achieve the parameters described herein ranges from 0.030 to 0.040 kPA^1/2 (L/min^−1)^−1. In embodiments, the mean inhaler resistance of a high resistance DPI used to achieve the parameters described herein ranges from about 0.034 to about 0.036 kPA^1/2 (L/min^−1)^−1.
Four Plastiape RS01 Model 7 DPIs (Plastiape S. p.A., Osnago, Italy) differ with respect to their device resistance: Ultra-high Resistance (UHR, code 239700005AA), High Resistance (HR, code 239700002AA), Medium Resistance (MR, code 239700006AA) and Low Resistance (LR, code 239700001AB). The pressure drop across each device containing an empty capsule was measured as a function of flow rate between 30 and 120 L/min (LPM). The present disclosure teaches that the high resistance DPI device is selected for evaluation and use. A peak inspiratory flow rate of 80 LPM, 60 LPM, 40 LPM, or 30 LPM corresponds to a pressure drop of 5.4 kPa, 4 kPa, 1.4 kPa, or 0.89 kPa, respectively, for the high resistance DPI.
In this Example, Applicant investigated the aerosol performance of TPIP in response to changes in capsule fill, device resistance, and inspiratory flow rate to enable selection of an inhaler for clinical use. Capsules containing 8, 16 or 32 mg of TPIP (80, 160, or 320 μg TP, respectively) were evaluated using four breath-actuated RS01 devices with low, medium, high or ultra-high inspiratory resistances, creating 12 different capsule and device configurations for evaluation.
The TP aerosol particle size distribution profiles for the UHR, HR, MR, and LR DPI devices are shown in FIGS. 7A-7C for the 8, 16 and 32 mg TPIP capsules, respectively. The TP aerosol particle size distribution profiles are polydisperse for the LR, MR and HR devices with the UHR device showing a trend towards a less polydisperse profile. The values for the total mass recoveries, emitted dose, MMAD, GSD, FPF, and FPD for the UHR, HR, MR, and LR devices loaded with 8, 16 and 32 mg TPIP capsules are shown in Table 5.

[3] = 16 mg capsule, all four devices
[4] = 32 mg capsule, LR device, 100 LPM
[5] = 32 mg capsule, MR device (printed MA), 85 LPM

- ED ([1]; 16 mg capsule, 1, 2, 4 L, 25 ms ramp): 76%
- emitted doses ([1]; 16 mg capsule, 1, 2, 4 L, 1000 ms ramp): 72-75%
- FPD (<5 μm), TP ([1]; 25 ms ramp, 1 L): 93 µg
- FPD (<5 μm), TP ([1]; 25 ms ramp, 4 L): 92 µg
- FPD (<5 μm), TP ([1]; 1000 ms ramp, 1 L): 87 µg
- FPD (<5 μm), TP ([1]; 1000 ms ramp, 4 L): 90 µg
- FPD [2, 3]: 98 to 104 µg
- FPF [2, 3]: 71-81%
- FPD (<5 μm), TP [2, 4]: 155 µg
- FPF (<5 μm) [2, 4]: 58%
- FPD (<5 μm), TP [2, 5]: 168 µg
- FPF (<5 μm) [2, 5]: 62%
- FPD ([2]; 32 mg capsule, UHR and HR devices): 197 to 200 µg
- FPF ([2]; 32 mg capsule, all four devices): 58-76%
Compound: CCCCCCCCCCCCCCCCOC(=O)COc1cccc2c1C[C@H]1C[C@@H](O)[C@H](CC[C@@H](O)CCCCC)[C@H]1C2 [TP, treprostinil palmitil]
